Results taken from patent US11638712B2, “Bis(acetamidophenyl) guanidinophenylethylphosphonates for use in the prevention and/or treatment of PAR-related diseases” (Universiteit Antwerpen, priority 2016, dated 2023).

How the values were obtained:
[1] = biological target: T1, thrombin (Homo sapiens, UniProt P00734); experiment: in vitro serine protease inhibition profile: thrombin; assay type: biochemical
T1 construct: panel of serine proteases: uPA, tPA, thrombin, plasmin, FXIIa

[2] = biological target: T2, plasmin (Homo sapiens, UniProt P00747); experiment: in vitro serine protease inhibition profile: plasmin; assay type: biochemical
T2 construct: panel of serine proteases: uPA, tPA, thrombin, plasmin, FXIIa
T2 sequence (P00747 581-810 limits assumed, species assumed): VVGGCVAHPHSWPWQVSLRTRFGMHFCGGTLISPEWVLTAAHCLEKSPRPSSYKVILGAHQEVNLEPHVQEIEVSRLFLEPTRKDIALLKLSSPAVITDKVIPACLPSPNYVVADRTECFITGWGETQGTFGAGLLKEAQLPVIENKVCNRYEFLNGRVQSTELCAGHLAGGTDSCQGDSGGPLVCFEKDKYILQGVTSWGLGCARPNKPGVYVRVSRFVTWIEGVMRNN
T2 sequence (P00747 97-580 partner limits assumed, species assumed): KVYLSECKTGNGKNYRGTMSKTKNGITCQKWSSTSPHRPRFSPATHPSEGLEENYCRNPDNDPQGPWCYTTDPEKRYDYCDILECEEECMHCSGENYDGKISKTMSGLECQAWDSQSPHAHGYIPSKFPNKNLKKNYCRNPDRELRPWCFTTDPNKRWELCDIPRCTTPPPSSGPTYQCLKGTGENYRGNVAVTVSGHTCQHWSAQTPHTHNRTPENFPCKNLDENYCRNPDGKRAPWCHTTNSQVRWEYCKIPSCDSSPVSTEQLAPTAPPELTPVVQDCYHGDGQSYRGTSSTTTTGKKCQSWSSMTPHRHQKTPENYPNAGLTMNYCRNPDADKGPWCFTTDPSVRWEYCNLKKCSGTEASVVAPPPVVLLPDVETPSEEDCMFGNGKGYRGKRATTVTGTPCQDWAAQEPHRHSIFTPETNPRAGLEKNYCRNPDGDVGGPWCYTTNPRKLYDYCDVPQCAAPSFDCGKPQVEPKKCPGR

[3] = biological target: T3, cathepsinG (Homo sapiens, UniProt P08311); experiment: in vitro serine protease inhibition profile: cathepsinG; assay type: biochemical
T3 sequence (P08311 21-244): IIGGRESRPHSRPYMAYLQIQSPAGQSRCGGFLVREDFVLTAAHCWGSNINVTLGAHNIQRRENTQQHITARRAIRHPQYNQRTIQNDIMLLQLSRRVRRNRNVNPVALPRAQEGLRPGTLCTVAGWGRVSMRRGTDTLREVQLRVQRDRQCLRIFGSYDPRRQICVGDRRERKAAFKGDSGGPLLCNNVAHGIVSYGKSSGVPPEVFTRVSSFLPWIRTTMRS

[4] = biological target: KLK2 (Homo sapiens, UniProt P20151); experiment: in vitro serine protease inhibition profile: KLK2; assay type: biochemical
KLK2, sequence (P20151 25-261, species assumed): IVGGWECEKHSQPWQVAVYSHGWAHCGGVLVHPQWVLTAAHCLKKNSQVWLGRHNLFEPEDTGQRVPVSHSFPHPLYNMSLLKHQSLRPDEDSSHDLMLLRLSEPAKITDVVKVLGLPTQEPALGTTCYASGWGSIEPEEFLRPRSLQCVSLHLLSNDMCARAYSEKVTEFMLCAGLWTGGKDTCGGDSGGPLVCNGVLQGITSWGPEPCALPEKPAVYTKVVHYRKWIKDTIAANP

[5] = biological target: KLK4 (Homo sapiens, UniProt Q9Y5K2); experiment: in vitro serine protease inhibition profile: KLK4; assay type: biochemical
KLK4, sequence (Q9Y5K2 31-254, species assumed): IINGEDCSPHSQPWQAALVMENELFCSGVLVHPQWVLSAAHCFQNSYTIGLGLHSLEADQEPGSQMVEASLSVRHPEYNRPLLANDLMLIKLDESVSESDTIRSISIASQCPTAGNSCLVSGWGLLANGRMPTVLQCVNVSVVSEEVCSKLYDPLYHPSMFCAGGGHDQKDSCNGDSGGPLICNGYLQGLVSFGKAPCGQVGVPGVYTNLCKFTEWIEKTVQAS

[6] = biological target: T4, KLK8 (Homo sapiens, UniProt O60259); experiment: in vitro serine protease inhibition profile: KLK8; assay type: biochemical
T4 sequence (O60259 33-260): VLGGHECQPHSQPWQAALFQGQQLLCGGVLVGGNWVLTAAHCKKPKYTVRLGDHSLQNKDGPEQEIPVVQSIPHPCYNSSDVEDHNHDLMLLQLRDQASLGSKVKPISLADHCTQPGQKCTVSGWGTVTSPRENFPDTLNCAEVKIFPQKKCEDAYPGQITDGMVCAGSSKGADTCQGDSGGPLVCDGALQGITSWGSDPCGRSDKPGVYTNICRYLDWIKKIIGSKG

[7] = biological target: T5, HNE (Homo sapiens, UniProt P08246); experiment: in vitro serine protease inhibition profile: HNE; assay type: biochemical
T5 sequence (P08246 30-267): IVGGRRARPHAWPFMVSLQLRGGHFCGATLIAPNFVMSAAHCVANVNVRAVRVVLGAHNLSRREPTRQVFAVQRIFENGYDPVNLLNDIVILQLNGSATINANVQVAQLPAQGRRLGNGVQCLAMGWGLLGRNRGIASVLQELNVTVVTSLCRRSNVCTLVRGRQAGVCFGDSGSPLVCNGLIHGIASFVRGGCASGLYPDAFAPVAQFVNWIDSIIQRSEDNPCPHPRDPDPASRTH

[8] = test system: ocular tissue damage; experiment: rat dry eye model, ocular surface damage by fluorescein staining; assay type: in vivo; settings: dry eye rats
Description: (§1) Female Wistar rats (200-300 g, Janvier, Roubaix, France) were kept under standard pathogen-free conditions. Husbandry conditions: room temperature 20-25° C., humidity 50-60% and a day-night cycle of 12 h light/12 h dark. Food and water were available ad libitum. All in vivo manipulations were approved by the Animal Ethical Committee of the University of Antwerp (2013-67) and are in accordance to the ARRIVE guidelines for the use of animals in ophthalmic and vision research.
To remove the exorbital lacrimal gland, animals were anesthetized with an intraperitoneal injection of 25 mg/kg ketamine (Anesketin®, Eurovet, Bladel, Netherlands) and 2.5 mg/kg xylazine (Rompun®, Bayer, Leverkusen, Germany). Routine manipulations (tear collection, fluorescein staining) were performed after induction with 5% isoflurane (Halocarbon®, New Jersey, USA), followed by a maintenance dosage of 1.5%.
(§2) To remove the gland, a small incision was made beneath the right ear. The lacrimal glands of the left eye were kept intact, leaving each animal with its own individual control and eliminating the need for extra control groups. Progression of dry eye was monitored for 24 days and tear volume measurements and fluorescein staining were performed once a week. Tears were collected twice a week.
Sodium-fluorescein (1%, Sigma-Aldrich, Seelze, Germany) in phosphate buffered saline (PBS, Gibco® by LifeTechnologies Europe, Gent, Belgium) was administered topically to the surface of the eye. To avoid false positives, eyes were rinsed after one minute with PBS and excess fluorescein was removed by placing filter paper in the lateral cantus of the eye. The eye was photographed with a microscopic lens (Photo adapter 1.0 MC 80 DX-Axiovert 25 CA, Carl Zeiss AB, Gottingen, Germany) in a darkened room under cobalt blue light. Using the Oxford fluorescein grading scale, scores from 0 to 5 were given to each eye, depending on ocular staining intensity. Semi-quantitative scoring was done in a blind manner by three independent observers. Evaluation of ocular surface damage was performed every week.
(§3) Tear fluid was obtained twice a week. Tear volume and tissue damage was evaluated once a week. Animals were treated with Restasis® (2×/day), UAMC50, UAMC1162, UAMC1169/vehicle (2×/day) for 3 consecutive weeks. Compounds 1, 2 and 4 were formulated as follows: […]

[9] = test system: TNF-α and IL-1α in tear fluid; experiment: rat dry eye model, pro-inflammatory cytokines in tear fluid; assay type: in vivo; settings: dry eye rats
Description: as §1, §2
Tear fluid was collected once a week with 10 μl capillaries (Blaubrand® Intramark, Wertheim, Germany) connected with a flexible tube to a syringe. […]
TNF-α and IL-1α concentrations in tear fluid were measured flow cytometrically (FACS calibur, BD Biosciences), using Cytometric Bead Array (CBA) according to the manufacturers protocol (Rat IL-1α and TNF-α CBA flex sets, BD Biosciences, Erembodegem Belgium.
Tear fluid was obtained twice a week. Tear volume and tissue damage was evaluated once a week. […]

[10] = rat dry eye model, aqueous tear production (phenol red thread); assay type: in vivo; settings: dry eye rats, 2 concentrations
Description: as §1, §2
A phenol red thread (Zone Quick®, Menicon Co. Ltd, Nagoya, Japan) was placed in the lateral cantus of the conjunctival fornix for 15 seconds. […] Tear fluid volumes were measured once a week.
as §3

[11] = 5 mM formulation, 2x/day, FIG. 4

SMILES	IC50 [1] [nM]	IC50 [2] [nM]	IC50 [3] [nM]	IC50 [4] [nM]	IC50 [5] [nM]	IC50 [6] [nM]	IC50 [7] [nM]	effect on ocular tissue damage [8, 11]	tissue damage scores ([8]; follow-up experiments, 5 mM and 500 μM, vs untreated, vehicle, Restasis, FIG. 5)	effect on ocular tissue damage ([8]; lower dose (500 μM), day 21)	anti-inflammatory effect on IL-1α and TNF-α in tear fluid ([9]; 5 mM)	anti-inflammatory effect on IL-1α and TNF-α in tear fluid ([9]; two concentrations, compared with Restasis, FIGS. 6 and 7)	effect on tear volume [10]
COC(=O)NC(Cc1ccc(NC(=N)N)cc1)P(=O)(Oc1ccccc1)Oc1ccccc1 (stereo not drawn) [Compound 1]	> 2500	> 2500	329	> 2500	9	28	> 2500	no effect	–	–	–	–	–
CC(=O)Nc1ccc(OP(=O)(Oc2ccc(NC(C)=O)cc2)C(Cc2ccc(NC(=N)N)cc2)NC(=O)OCc2ccccc2)cc1 (stereo not drawn) [Compound 4]	257	> 2500	120	115	2	2	> 2500	superior effect on ocular tissue damage	lower tissue damage scores	failed to provide an effect on day 21	significant anti-inflammatory effect	overall stronger anti-inflammatory effect and faster onset of action effect than Restasis©	no significant effects have been observed on tear volume
